In brackets after ≈: the same amount, converted by molar mass. Entries after “also recorded” stand apart in the source; their conditions may differ.
Columns and labels:
[1] = Photoabsorption 290-700 nm, molar extinction coefficient (photoliability); type: physicochemical; settings: wavelength of maximal absorption between 290 nm and 700 nm
5-HT2B [2] = molecular target: T1, 5-HT2B (Homo sapiens, UniProt P41595); test: IP-One HTRF IP-1 accumulation functional assay, 5-HT2B/HEK293; type: cell-based; design: host or cells: HEK293
Description: Methods (5-HT2B IP-One Functional Activity Assays): Intracellular accumulation of IP-1 was measured using an IP-One HTRF) assay kit (Cat. #62IPAPEJ, Cisbio) at WuXi AppTec Co. Ltd. (Hong Kong) Discovery Biology Unit according to their standard protocols. Briefly, 5-HT2B/HEK293 were plated in a 384-well plate and incubated at 37° C. and 5% CO2 overnight. The reference compounds and screening compounds were 3.16-fold serially diluted in 100% DMSO for 10 points using Bravo. 70 nL of compounds were added to the cell plate using Echo555. Incubated for 60 minutes at 37° C. Added 3 μL of IP-1 d2 Reagent working solution and 3 μL of IP-1 Tb Cryptate Antibody working solution to all wells. The plates were incubated for 1 hour at room temperature and read on for fluorescence at 620 nm and 665 nm on an EnVision Multimode Plate Reader (PerkinElmer). The ratio of the acceptor and donor emission signals (665/620) were calculated for each individual well and substituted into the standard curve to obtain the log concentration of IP level. After converting to the antilog base IP-1, the average background control signal was subtracted from each well and values were normalized to the maximal response of 5-HT at 3 μM (100%). % MAX was calculated by taking the average normalized maximal response at the highest concentration tested. Data were analyzed using the four-parameter nonlinear regression curve-fitting function in GraphPad Prism 5 (GraphPad Software, San Diego, CA) to generate potency (EC50) values. Parameter constraint “Top=100” was used in the analysis of 5-HT2B IP-1. Represented plots show normalized IP-1 values versus compound concentrations; the corresponding numerical data are parameter estimates for the concentration-response curve using the 4-parameter nonlinear regression curve-fitting function in GraphPad Prism 10. “Top=100” parameter constraint was not enabled for the represented plot analysis.

5-HT2A [3] = molecular target: T2, 5-HT2A (Homo sapiens, UniProt P28223); test: IP-One HTRF IP-1 accumulation functional assay, 5-HT2A-expressing HEK293; type: cell-based; design: host or cells: HEK293
Description: Methods (5-HT2A and 5-HT2C IP-One Functional Activity Assays): Intracellular accumulation of IP-1 was measured using an IP-One HTRF assay kit (Cat. #62IPAPEJ, Cisbio) at WuXi AppTec Co. Ltd. (Hong Kong) Discovery Biology Unit according to their standard protocols. Briefly, the reference compounds and screening compounds were 3.16-fold serially diluted in 100% DMSO for 10 points using Bravo. 70 nL of compounds were added to the assay plate using Echo555. Added 14 μL/7500 cells/well of 5-HT2A-expressing HEK293 or 5-HT2C-expressing HEK293 to the assay plate and incubate for 60 min at 37° C. Added 3 μL of IP-1 d2 Reagent working solution and 3 μL of IP-1 Tb Cryptate Antibody working solution to all wells. The plates were incubated for 1 hour at room temperature and read for fluorescence at 620 nm and 665 nm on an EnVision Multimode Plate Reader (PerkinElmer). The ratio of the acceptor and donor emission signals (665/620) were calculated for each individual well and substituted into the standard curve to obtain the log concentration of IP level. After converting to the antilog base IP-1, the average background control signal was subtracted from each well and values were normalized to the maximal response of 5-HT at 3 μM (100%). % MAX was calculated by taking the average normalized maximal response for each compound at the highest concentration tested. The data were analyzed using the four-parameter nonlinear regression curve-fitting function in GraphPad Prism 5 (GraphPad Software, San Diego, CA) to generate potency (EC50) values. The represented plots show normalized IP-1 values versus compound concentrations; the corresponding numerical data are parameter estimates for the concentration-response curve using the four-parameter nonlinear regression curve-fitting function in GraphPad Prism 10.

[4] = Aqueous solubility by sequential dilution in water, microscopic inspection; settings: water, thermodynamic from solid
5-HT2B [5] = molecular target: T1, 5-HT2B; test: Calcium flux agonist assay, 293T cells; type: cell-based; design: expressed in transfected cells; host or cells: Human Embryonic Kidney (293T) cells, transient; settings: for Emax: HEK-293T, 5-HT2B, normalized to maximum 5-HT response; for Emax / 5-HT2B receptor activation: calcium flux; for 5-HT2B receptor activation: in words
5-HT2A [6] = molecular target: T2, 5-HT2A; test: Calcium flux agonist assay, 293T cells; type: cell-based; design: expressed in transfected cells; host or cells: Human Embryonic Kidney (293T) cells, transient; settings: for Emax: HEK-293T, calcium flux, 5-HT2A, normalized to maximum 5-HT response
male C57BL/6J mice [7] = test: Motor activity / distance traveled measured in parallel with HTR; type: in vivo, mouse; settings: i.p.; for motor activity, in words: magnetometer activity
male C57BL/6J mice [8] = test: Mouse head-twitch response (HTR) assay, magnetometer; type: in vivo; settings: for HTR (head twitch response), in words: i.p., doses up to 30 mpk
5-HT2A (h) = molecular target: T3, 5-HT2A (h) (Homo sapiens, UniProt P28223); test: Radioligand binding 5-HT2A (h) (agonist radioligand), [^125I](±)DOI, HEK-293 cells; settings: 5-HT2A, Hill coefficient
T3 construct: host or cells: HEK-293 cells

5-HT2B (h) = molecular target: T4, 5-HT2B (h) (Homo sapiens, UniProt P41595); test: Radioligand binding 5-HT2B (h) (agonist radioligand), [^125I](±)DOI, CHO cells
T4 construct: host or cells: CHO cells

5-HT2C (h) = molecular target: T5, 5-HT2C (h) (Homo sapiens, UniProt P28335); test: Radioligand binding 5-HT2C (h) (agonist radioligand), [^125I](±)DOI, HEK-293 cells
T5 construct: host or cells: HEK-293 cells
T5 sequence (P28335 33-458): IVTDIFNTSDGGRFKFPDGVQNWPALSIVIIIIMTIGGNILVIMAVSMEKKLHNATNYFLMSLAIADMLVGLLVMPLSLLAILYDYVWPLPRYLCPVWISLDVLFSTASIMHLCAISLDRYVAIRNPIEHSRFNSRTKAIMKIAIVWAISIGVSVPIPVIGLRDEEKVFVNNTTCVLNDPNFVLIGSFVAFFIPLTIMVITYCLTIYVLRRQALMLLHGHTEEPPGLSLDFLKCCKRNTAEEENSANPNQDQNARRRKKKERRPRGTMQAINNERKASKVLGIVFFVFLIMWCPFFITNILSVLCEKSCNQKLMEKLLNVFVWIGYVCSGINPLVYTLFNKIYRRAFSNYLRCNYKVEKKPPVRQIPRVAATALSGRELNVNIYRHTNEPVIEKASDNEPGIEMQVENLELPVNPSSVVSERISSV

T1 sequence (P41595 whole entry): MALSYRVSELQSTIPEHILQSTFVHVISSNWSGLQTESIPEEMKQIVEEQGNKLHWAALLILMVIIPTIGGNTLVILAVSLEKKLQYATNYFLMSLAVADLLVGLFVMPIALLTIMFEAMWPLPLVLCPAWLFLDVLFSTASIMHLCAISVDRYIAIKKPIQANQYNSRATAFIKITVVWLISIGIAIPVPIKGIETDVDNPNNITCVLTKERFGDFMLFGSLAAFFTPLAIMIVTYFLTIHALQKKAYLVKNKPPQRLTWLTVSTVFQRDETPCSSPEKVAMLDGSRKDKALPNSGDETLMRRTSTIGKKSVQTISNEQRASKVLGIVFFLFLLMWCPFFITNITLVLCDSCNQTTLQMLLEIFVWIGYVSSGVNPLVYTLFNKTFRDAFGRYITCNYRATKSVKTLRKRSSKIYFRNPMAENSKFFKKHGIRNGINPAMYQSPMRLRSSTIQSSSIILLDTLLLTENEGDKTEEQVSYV
T4 sequence (P41595 whole entry): as above
T2 sequence (P28223 whole entry, looked up): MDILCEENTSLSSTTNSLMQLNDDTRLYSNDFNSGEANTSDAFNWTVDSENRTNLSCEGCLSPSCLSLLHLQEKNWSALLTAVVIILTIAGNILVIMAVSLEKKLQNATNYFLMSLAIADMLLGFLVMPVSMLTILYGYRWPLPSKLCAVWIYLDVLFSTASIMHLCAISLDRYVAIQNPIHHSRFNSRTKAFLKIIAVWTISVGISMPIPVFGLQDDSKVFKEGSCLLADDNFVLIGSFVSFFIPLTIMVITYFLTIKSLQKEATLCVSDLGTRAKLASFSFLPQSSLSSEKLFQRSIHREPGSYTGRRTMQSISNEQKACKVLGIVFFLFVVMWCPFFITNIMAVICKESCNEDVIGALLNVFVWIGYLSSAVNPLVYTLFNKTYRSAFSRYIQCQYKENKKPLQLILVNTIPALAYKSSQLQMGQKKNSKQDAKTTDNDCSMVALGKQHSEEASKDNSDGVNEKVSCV
T3 sequence (P28223 whole entry, looked up): as above

COc1cc(CC(C)C)c(CO)cc1CCN [Compound 2CiBu-5HM, [5-(2-Aminoethyl)-2-isobutyl-4-methoxy-phenyl]methanol]
MEC [1]: 340.7 L/mol/cm | EC50 (5-HT2B [2]): 1120 nM | EC50 (5-HT2A [3]): 466 nM | solubility [4]: 44.4 mM (≈ 10500 µg/mL)

COc1cc(CCN)c(OC)cc1Br [Compound 2C-B, reference compound]
EC50 (5-HT2B [2]): 232 nM | EC50 (5-HT2B [5]): 9.98 nM | Emax (5-HT2B [5]): 92.7% | 5-HT2B receptor activation (5-HT2B [5]): near maximal activation | EC50 (5-HT2A [3]): 20.9 nM | EC50 (5-HT2A [6]): 0.62 nM | Emax (5-HT2A [6]): 105%

COc1cc(CC(C)C)c(OC)cc1CCN [Compound 2C-iBu, reference compound]
motor activity ID50 (male C57BL/6J mice [7]): 2 mpk | motor activity, in words (male C57BL/6J mice [7]): modest but statistically significant effect on motor suppression at the doses of 3 and 10 mpk | EC50 (5-HT2B [5]): 22.3 nM | Emax (5-HT2B [5]): 89.1% | 5-HT2B receptor activation (5-HT2B [5]): near maximal activation | ED50 (male C57BL/6J mice [8]; Mus musculus, ip, non-linear regression): 0.42 mg/kg | HTR (head twitch response), in words (male C57BL/6J mice [8]): produced clear HTR time-course and inverted U-shape dose-response patterns; also recorded: induced HTR activity | EC50 (5-HT2A [6]): 21.9 nM | Emax (5-HT2A [6]): 92.6% | solubility [4]: 31.2 mM (≈ 7400 µg/mL)

COc1cc(C[C@@H](C)N)c(OC)cc1I [R-DOI, (−)-R-2,5-dimethoxy-4-iodo-amphetamine, reference compound]
motor activity, in words (male C57BL/6J mice [7]): increase in motor activity | nH (5-HT2A (h)): 0.7 | HTR (head twitch response), in words (male C57BL/6J mice [8]): induced HTR that gradually increased over time | IC50 (5-HT2B (h)): 2.3 nM | Ki (5-HT2B (h)): 1.2 nM | nH (5-HT2B (h); 5-HT2B, Hill coefficient): 0.7 | Ki (5-HT2C (h)): 0.4 nM | nH (5-HT2C (h); 5-HT2C, Hill coefficient): 1.0

Source: patent US12692221B2 (priority 2024, dated 2026)
